Data from patent US10913738B2 (BRISTOL-MYERS SQUIBB COMPANY, priority 2017, dated 2021).
Like-named read-outs stand apart in the source and are kept apart here.

Experiments:
[1] = biological target: T1, His-GST-TVMV-hRIPK1(1-324) (Homo sapiens, UniProt Q13546); experiment: RIPK1 HTRF Binding Assay
T1 construct: The coding region of human RIPK1(1-324) flanked by NdeI site at 5′ end; made in house; host or cells: Spodoptera frugiperda (Sf9) insect cells, baculovirus
T1 sequence (Q13546 1-324): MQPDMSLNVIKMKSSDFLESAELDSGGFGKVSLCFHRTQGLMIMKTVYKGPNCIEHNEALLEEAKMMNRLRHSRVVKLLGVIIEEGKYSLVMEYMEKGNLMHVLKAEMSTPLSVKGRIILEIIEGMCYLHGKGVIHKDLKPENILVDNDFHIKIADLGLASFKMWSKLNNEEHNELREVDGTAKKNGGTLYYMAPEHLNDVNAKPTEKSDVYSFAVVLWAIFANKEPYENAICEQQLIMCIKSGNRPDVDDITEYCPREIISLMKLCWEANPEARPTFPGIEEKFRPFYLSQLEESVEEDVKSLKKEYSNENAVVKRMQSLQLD

[2] = test system: MLKL phosphorylation in HT29-L23 human colorectal adenocarcinoma cells; experiment: MLKL Phosphorylation High-Content Assay; type: cell-based; settings: Homo sapiens
How it was run: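 Cells incubated six hours at 37° C., then phospho-MLKL (S358) immunostained overnight at 4° C. and imaged by high-content microscopy. Phosphorylation quantified as mean circ-ring average intensity ratio; IC50 and Ymax from 4-parameter logistic fits.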

[3] = x marks IC50 class <20 nM, read-out: RIPK1 HTRF binding <20 nM
[4] = x marks IC50 class <20 nM, read-out: pMLKL cell activity <20 nM
[5] = x marks IC50 class 20-200 nM, read-out: pMLKL cell activity 20-200 nM
[6] = x marks IC50 class 20-200 nM, read-out: RIPK1 HTRF binding 20-200 nM
[7] = x marks IC50 class >200 nM, read-out: RIPK1 HTRF binding >200 nM
[8] = x marks IC50 class >200 nM, read-out: pMLKL cell activity >200 nM

Compound: COc1ncc(-c2ccn3nc(N)nc3c2)cc1C(=O)NCc1c(F)cccc1OCC1CCC1 [Example 146, 5-{2-amino-[1,2,4]triazolo[1,5-a]pyridin-7-yl}-N-{[2-(cyclobutylmethoxy)-6-fluorophenyl]methyl}-2-methoxypyridine-3-carboxamide]
- IC50 [1, 3]: < 20 nM
- IC50 [2, 4]: < 20 nM

Compound: COc1ncc(-c2ccn3nc(N)nc3c2)cc1C(=O)NCc1c(F)cccc1OCC1CC1 [Example 147, 5-{2-amino-[1,2,4]triazolo[1,5-a]pyridin-7-yl}-N-{[2-(cyclopropylmethoxy)-6-fluorophenyl]methyl}-2-methoxypyridine-3-carboxamide]
- IC50 [1, 3]: < 20 nM
- IC50 [2, 4]: < 20 nM

Compound: COc1ncc(-c2ccn3nc(N)nc3c2)cc1C(=O)NCc1ccccc1OC1CCCC1 [Example 148, 5-{2-amino-[1,2,4]triazolo[1,5-a]pyridin-7-yl}-N-{[2-(cyclopentyloxy)phenyl]methyl}-2-methoxypyridine-3-carboxamide]
- IC50 [1, 3]: < 20 nM
- IC50 [2, 4]: < 20 nM

Compound: COc1ncc(-c2ccn3nc(N)nc3c2)cc1C(=O)NCc1ccccc1OCC1CCC1 [Example 149, 5-{2-amino-[1,2,4]triazolo[1,5-a]pyridin-7-yl}-N-{[2-(cyclobutylmethoxy)phenyl]methyl}-2-methoxypyridine-3-carboxamide]
- IC50 [1, 3]: < 20 nM
- IC50 [2, 4]: < 20 nM

Compound: COc1ncc(-c2ccn3nc(N)nc3c2)cc1C(=O)NCc1ccccc1OC(F)(F)C(F)F [Example 150, 5-{2-amino-[1,2,4]triazolo[1,5-a]pyridin-7-yl}-2-methoxy-N-{[2-(1,1,2,2-tetrafluoroethoxy)phenyl]methyl}pyridine-3-carboxamide]
- IC50 [1, 3]: < 20 nM
- IC50 [2, 5]: 20 to 200 nM

Compound: COc1ncc(-c2ccn3nc(N)nc3c2)cc1C(=O)NCc1ccccc1Sc1ccccc1CO [Example 151, 5-{2-amino-[1,2,4]triazolo[1,5-a]pyridin-7-yl}-N-[(2-{[2-(hydroxymethyl)phenyl]sulfanyl}phenyl)methyl]-2-methoxypyridine-3-carboxamide]
- IC50 [1, 3]: < 20 nM
- IC50 [2, 4]: < 20 nM

Compound: COc1ncc(-c2ccn3nc(N)nc3c2)cc1C(=O)NCc1c[nH]nc1-c1ccccc1 [Example 152, 5-{2-amino-[1,2,4]triazolo[1,5-a]pyridin-7-yl}-2-methoxy-N-[(3-phenyl-1H-pyrazol-4-yl)methyl]pyridine-3-carboxamide]
- IC50 [1, 6]: 20 to 200 nM
- IC50 [2, 5]: 20 to 200 nM

Compound: CCOc1ccccc1CNC(=O)c1cc(-c2ccn3nc(N)nc3c2)cnc1OC [Example 153, 5-{2-amino-[1,2,4]triazolo[1,5-a]pyridin-7-yl}-N-[(2-ethoxyphenyl)methyl]-2-methoxypyridine-3-carboxamide]
- IC50 [1, 3]: < 20 nM
- IC50 [2, 5]: 20 to 200 nM

Compound: COc1ccccc1CNC(=O)c1cc(-c2ccn3nc(N)nc3c2)cnc1OC [Example 154, 5-{2-amino-[1,2,4]triazolo[1,5-a]pyridin-7-yl}-2-methoxy-N-[(2-methoxyphenyl)methyl]pyridine-3-carboxamide]
- IC50 [1, 7]: > 200 nM
- IC50 [2, 8]: > 200 nM

Compound: COc1ncc(-c2ccn3nc(N)nc3c2)cc1C(=O)NCc1c(Cl)cccc1Oc1ccccc1 [Example 155, 5-{2-amino-[1,2,4]triazolo[1,5-a]pyridin-7-yl}-N-[(2-chloro-6-phenoxyphenyl)methyl]-2-methoxypyridine-3-carboxamide]
- IC50 [1, 3]: < 20 nM
- IC50 [2, 4]: < 20 nM

Compound: COc1ccccc1[C@@H](C)NC(=O)c1cc(-c2ccn3nc(N)nc3c2)cnc1OC [Example 156, 5-{2-amino-[1,2,4]triazolo[1,5-a]pyridin-7-yl}-2-methoxy-N-[(1R)-1-(2-methoxyphenyl)ethyl]pyridine-3-carboxamide]
- IC50 [1, 6]: 20 to 200 nM
- IC50 [2, 8]: > 200 nM

Compound: COc1ncc(-c2ccn3nc(N)nc3c2)cc1C(=O)NCc1ccccc1Oc1ccccc1 [Example 158, 5-{2-amino-[1,2,4]triazolo[1,5-a]pyridin-7-yl}-2-methoxy-N-[(2-phenoxyphenyl)methyl]pyridine-3-carboxamide]
- IC50 [1, 3]: < 20 nM
- IC50 [2, 4]: < 20 nM

Compound: COc1ncc(-c2ccn3nc(N)nc3c2)cc1C(=O)N[C@H]1CCN(Cc2ccccc2)C1 [Example 159, 5-{2-amino-[1,2,4]triazolo[1,5-a]pyridin-7-yl}-N-[(3S)-1-benzylpyrrolidin-3-yl]-2-methoxypyridine-3-carboxamide]
- IC50 [1, 7]: > 200 nM
- IC50 [2, 5]: 20 to 200 nM

Compound: COc1ncc(-c2ccn3nc(N)nc3c2)cc1C(=O)NCc1cc(C(F)(F)F)ccc1Cl [Example 161, 5-{2-amino-[1,2,4]triazolo[1,5-a]pyridin-7-yl}-N-{[2-chloro-5-(trifluoromethyl)phenyl]methyl}-2-methoxypyridine-3-carboxamide]
- IC50 [1, 3]: < 20 nM
- IC50 [2, 5]: 20 to 200 nM

Compound: COc1ncc(-c2ccn3nc(N)nc3c2)cc1C(=O)N(C)Cc1cccc(OC(F)(F)F)c1 [Example 162, 5-{2-amino-[1,2,4]triazolo[1,5-a]pyridin-7-yl}-2-methoxy-N-methyl-N-{[3-(trifluoromethoxy)phenyl]methyl}pyridine-3-carboxamide]
- IC50 [1, 3]: < 20 nM
- IC50 [2, 5]: 20 to 200 nM

Compound: CC(C)Oc1c(F)cc(F)cc1CNC(=O)c1cc(-c2ccn3nc(N)nc3c2)cnc1Cl [Example 163, 5-{2-amino-[1,2,4]triazolo[1,5-a]pyridin-7-yl}-2-chloro-N-{[3,5-difluoro-2-(propan-2-yloxy)phenyl]methyl}pyridine-3-carboxamide]
- IC50 [1, 3]: < 20 nM
- IC50 [2, 5]: 20 to 200 nM

Compound: Nc1nc2cc(-c3cnc(Cl)c(C(=O)NCc4cccc(OCC5CC5)c4)c3)ccn2n1 [Example 164]
- IC50 [1, 6]: 20 to 200 nM
- IC50 [2, 5]: 20 to 200 nM

Compound: Nc1nc2cc(-c3cnc(Cl)c(C(=O)NCc4ccccc4OC4CCOC4)c3)ccn2n1 (stereo not shown) [Example 165]
- IC50 [1, 6]: 20 to 200 nM
- IC50 [2, 5]: 20 to 200 nM

Compound: Nc1nc2cc(-c3cnc(Cl)c(C(=O)NCc4cc(OC(F)(F)F)ccc4F)c3)ccn2n1 [Example 166, 5-{2-amino-[1,2,4]triazolo[1,5-a]pyridin-7-y1}-2-chloro-N-{[2-fluoro-5-(trifluoromethoxy)phenyl]methyl}pyridine-3-carboxamide]
- IC50 [1, 6]: 20 to 200 nM
- IC50 [2, 8]: > 200 nM

Compound: Nc1nc2cc(-c3cnc(Cl)c(C(=O)NCc4cccc(OC(F)(F)F)c4)c3)ccn2n1 [Example 167]
- IC50 [1, 3]: < 20 nM
- IC50 [2, 4]: < 20 nM

Compound: Nc1nc2cc(-c3cnc(Cl)c(C(=O)NCc4ccccc4OC(F)(F)F)c3)ccn2n1 [Example 168, 5-{2-amino-[1,2,4]triazolo[1,5-a]pyridin-7-yl}-2-chloro-N-{[2-(trifluoromethoxy)phenyl]methyl}pyridine-3-carboxamide]
- IC50 [1, 6]: 20 to 200 nM
- IC50 [2, 8]: > 200 nM

Compound: CC(CCNC(=O)c1cc(-c2ccn3nc(N)nc3c2)cnc1Cl)c1ccccc1 (stereo not shown) [Example 169, 5-{2-amino-[1,2,4]triazolo[1,5-a]pyridin-7-yl}-2-chloro-N-(3-phenylbutyl)pyridine-3-carboxamide]
- IC50 [1, 6]: 20 to 200 nM
- IC50 [2, 8]: > 200 nM

Compound: [2H]C([2H])(NC(=O)c1cc(-c2ccn3nc(N)nc3c2)cnc1Cl)c1cc(OC(F)(F)F)ccc1F [Example 171, 5-{2-amino-[1,2,4]triazolo[1,5-a]pyridin-7-yl}-2-chloro-N-{[2-fluoro-5-(trifluoromethoxy)phenyl](deutero)methyl}pyridine-3-carboxamide]
- IC50 [1, 6]: 20 to 200 nM
- IC50 [2, 5]: 20 to 200 nM

Compound: Cc1nc(C)c(-c2ccn3nc(N)nc3c2)cc1C(=O)NCC(O)COc1ccccc1 (stereo not shown) [Example 172, 5-{2-amino-[1,2,4]triazolo[1,5-a]pyridin-7-yl}-N-(2-hydroxy-3-phenoxypropyl)-2,6-dimethylpyridine-3-carboxamide]
- IC50 [1, 3]: < 20 nM
- IC50 [2, 5]: 20 to 200 nM

Compound: Cc1nc(C)c(-c2ccn3nc(N)nc3c2)cc1C(=O)NCC(O)Cc1ccccc1 (stereo not shown) [Example 173]
- IC50 [1, 6]: 20 to 200 nM
- IC50 [2, 8]: > 200 nM

Compound: Cc1nc(C)c(-c2ccn3nc(N)nc3c2)cc1C(=O)NCCC(C)c1ccccc1 (stereo not shown) [Example 174, 5-{2-amino-[1,2,4]triazolo[1,5-a]pyridin-7-yl}-2,6-dimethyl-N-(3-phenylbutyl)pyridine-3-carboxamide]
- IC50 [1, 6]: 20 to 200 nM
- IC50 [2, 8]: > 200 nM

Compound: Cc1nc(C)c(-c2ccn3nc(N)nc3c2)cc1C(=O)NCCc1cccc(OC(F)(F)F)c1 [Example 175, 5-{2-amino-[1,2,4]triazolo[1,5-a]pyridin-7-yl}-2,6-dimethyl-N-{2-[3-(trifluoromethoxy)phenyl]ethyl}pyridine-3-carboxamide]
- IC50 [1, 3]: < 20 nM
- IC50 [2, 4]: < 20 nM

Compound: Cc1nc(C)c(-c2ccn3nc(N)nc3c2)cc1C(=O)NCc1cccc(OCC2CC2)c1 [Example 176, 5-{2-amino-[1,2,4]triazolo[1,5-a]pyridin-7-yl}-N-{[3-(cyclopropylmethoxy)phenyl]methyl]-2,6-dimethylpyridine-3-carboxamide]
- IC50 [1, 6]: 20 to 200 nM
- IC50 [2, 8]: > 200 nM

Compound: Cc1nc(C)c(-c2ccn3nc(N)nc3c2)cc1C(=O)NCc1c(F)cc(F)cc1OCC1CCCC1 [Example 177, 5-{2-amino-[1,2,4]triazolo[1,5-a]pyridin-7-yl}-N-{[2-(cyclopentylmethoxy)-4,6-difluorophenyl]methyl}-2,6-dimethylpyridine-3-carboxamide]
- IC50 [1, 3]: < 20 nM
- IC50 [2, 5]: 20 to 200 nM
